# Where two headings read alike, the source gives them in different places.
# Columns and labels:
# [1] = tested on: β-catenin-TCF-mediated reporter transcription activity in Colo 205 cells; assay: Colo 205 reporter assay (TCF/LEF luciferase); assay type: cell-based; settings: five hours after addition of compound
# Outline: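 Luciferase signal from a TCF/LEF-driven reporter, stably integrated in Colo 205 colon cancer cells, was measured 5 h after compound addition.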
# [2] = target: HEK293 membranes over-expressing WFS-1 (Homo sapiens (Human), UniProt O76024); assay: Radioligand displacement assay (tritiated Compound 136 probe); assay type: binding; settings: displacement of tritiated Compound 136
# Chain of HEK293 membranes over-expressing WFS-1 (O76024 whole entry): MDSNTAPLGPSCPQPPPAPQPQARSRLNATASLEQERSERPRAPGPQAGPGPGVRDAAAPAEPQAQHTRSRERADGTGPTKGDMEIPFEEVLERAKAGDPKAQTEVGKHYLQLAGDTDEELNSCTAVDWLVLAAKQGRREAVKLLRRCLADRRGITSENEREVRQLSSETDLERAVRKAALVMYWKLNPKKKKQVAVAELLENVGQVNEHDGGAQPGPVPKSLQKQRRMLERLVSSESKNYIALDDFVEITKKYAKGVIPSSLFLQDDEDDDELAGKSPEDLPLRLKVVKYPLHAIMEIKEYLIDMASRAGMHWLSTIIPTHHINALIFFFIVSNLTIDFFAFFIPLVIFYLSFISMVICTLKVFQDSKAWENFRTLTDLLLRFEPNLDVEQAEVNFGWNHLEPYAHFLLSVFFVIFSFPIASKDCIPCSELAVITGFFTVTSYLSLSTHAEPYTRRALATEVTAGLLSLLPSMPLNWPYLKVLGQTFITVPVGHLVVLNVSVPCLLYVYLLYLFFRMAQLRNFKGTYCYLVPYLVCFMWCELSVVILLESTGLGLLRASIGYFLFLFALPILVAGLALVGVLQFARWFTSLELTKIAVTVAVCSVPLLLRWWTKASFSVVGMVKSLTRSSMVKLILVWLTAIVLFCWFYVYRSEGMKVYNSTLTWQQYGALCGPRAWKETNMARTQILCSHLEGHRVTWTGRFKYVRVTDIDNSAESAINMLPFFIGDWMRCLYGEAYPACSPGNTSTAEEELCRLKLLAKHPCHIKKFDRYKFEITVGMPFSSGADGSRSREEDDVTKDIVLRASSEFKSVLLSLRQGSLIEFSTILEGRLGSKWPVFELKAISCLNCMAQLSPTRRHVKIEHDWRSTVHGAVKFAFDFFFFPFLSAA
# Outline: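 WFS-1-overexpressing HEK293 membranes were preincubated 10 min with compound, then tritiated probe was added for 90 min at room temperature. Bound probe was collected by filtration on PEI-pretreated GF/B filters, washed and scintillation-counted. IC50 came from a 3-parameter fit of bound probe vs compound concentration.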
# [3] = Homo sapiens, COLO 205, 5 h, Colo 205 TCF/LEF luciferase reporter, read-out: TCF reporter Colo205 IC50
# [4] = Homo sapiens, COLO 205, 5 h, Colo 205 cells with stably transfected TCF/LEF luciferase reporter, read-out: TCF reporter Colo205
"IC50 [1, 3]",IC50 [2],"IC50 [1, 4]","IC50 ([1]; Colo 205 TCF/LEF luciferase reporter, read-out: TCF reporter Colo205 IC50)",SMILES
300 to 1000 nM,600 to 3000 nM,,,"Cc1nc(N[C@H]2C[C@@H](COc3ccc(C(F)(F)F)cn3)C2)nc2c1NC(=O)[C@H](C)N2C [Compound 356, (7S)-4,7,8-trimethyl-2-((cis-3-(((5-(trifluoromethyl)pyridin-2-yl)oxy)methyl)cyclobutyl)amino)-7,8-dihydropteridin-6(5H)-one]"
1000 to 5000 nM,60 to 600 nM,,,"Cc1nc(N[C@H]2C[C@H](Oc3ccc(F)nc3)C2)nc2c1NC(=O)[C@H](C)N2C [Compound 357, (7S)-2-((trans-3-((6-fluoropyridin-3-yl)oxy)cyclobutyl)amino)-4,7,8-trimethyl-7,8-dihydropteridin-6(5H)-one]"
< 300 nM,< 60 nM,,,"Cc1nc(NCc2cnn(Cc3ccc(C(F)(F)F)nc3)c2)nc2c1NC(=O)[C@H](C(C)C)N2C [Compound 383, (7S)-7-isopropyl-4,8-dimethyl-2-(((1-((6-(trifluoromethyl)pyridin-3-yl)methyl)-1H-pyrazol-4-yl)methyl)amino)-7,8-dihydropteridin-6(5H)-one]"
< 300 nM,60 to 600 nM,,,"Cc1nc(NCc2cnn(Cc3ccc(F)nc3)c2)nc2c1NC(=O)[C@H](C(C)C)N2C [Compound 384, (7S)-2-(((1-((6-fluoropyridin-3-yl)methyl)-1H-pyrazol-4-yl)methyl)amino)-7-isopropyl-4,8-dimethyl-7,8-dihydropteridin-6(5H)-one]"
< 300 nM,< 60 nM,,,"Cc1nc(NCc2cnn(Cc3ccc(C(F)(F)F)nc3)c2)nc2c1NC(=O)[C@H](C)N2C(C)C [Compound 385, (7S)-8-isopropyl-4,7-dimethyl-2-(((1-((6-(trifluoromethyl)pyridin-3-yl)methyl)-1H-pyrazol-4-yl)methyl)amino)-7,8-dihydropteridin-6(5H)-one]"
< 300 nM,60 to 600 nM,,,"Cc1nc(NCc2cnn(Cc3ccc(C(F)(F)F)nc3)c2)nc2c1NC(=O)[C@H](C1CC1)N2C [Compound 386, (7S)-7-Cyclopropyl-4,8-dimethyl-2-(((1-((6-(trifluoromethyl)pyridin-3-yl)methyl)-1H-pyrazol-4-yl)methyl)amino)-7,8-dihydropteridin-6(5H)-one]"
< 300 nM,< 60 nM,,,"Cc1nc(NCc2cnn(Cc3ccc(C(F)(F)F)nc3C(C)C)c2)nc2c1NC(=O)[C@H](C)N2C [Compound 388, (7S)-2-(((1-((2-isopropyl-6-(trifluoromethyl)pyridin-3-yl)methyl)-1H-pyrazol-4-yl)methyl)amino)-4,7,8-trimethyl-7,8-dihydropteridin-6(5H)-one]"
< 300 nM,60 to 600 nM,,,"CCN1c2nc(NCc3cnn(Cc4ccc(C(F)(F)F)nc4)c3)nc(C)c2NC(=O)[C@@H]1C [Compound 395, (7S)-8-Ethyl-4,7-dimethyl-2-(((1-((6-(trifluoromethyl)pyridin-3-yl)methyl)-1H-pyrazol-4-yl)methyl)amino)-7,8-dihydropteridin-6(5H)-one]"
< 300 nM,60 to 600 nM,,,"Cc1nc(NCc2cnn(Cc3cc(C(F)(F)F)nn3C)c2)nc2c1NC(=O)[C@H](C1CC1)N2C [Compound 396, (7S)-7-Cyclopropyl-4,8-dimethyl-2-(((1-((1-methyl-3-(trifluoromethyl)-1H-pyrazol-5-yl)methyl)-1H-pyrazol-4-yl)methyl)amino)-7,8-dihydropteridin-6(5H)-one]"
,60 to 600 nM,< 300 nM,,"Cc1nc(NCc2cnn(Cc3cc(C(F)(F)F)nn3C)c2)nc2c1NC(=O)[C@H](C(C)C)N2C [Compound 397, (7S)-7-Isopropyl-4,8-dimethyl-2-(((1-((1-methyl-3-(trifluoromethyl)-1H-pyrazol-5-yl)methyl)-1H-pyrazol-4-yl)methyl)amino)-7,8-dihydropteridin-6(5H)-one]"
,60 to 600 nM,< 300 nM,,"Cc1nc(NCc2cnn(Cc3ccc(C(F)(F)F)nc3)c2)nc2c1NC(=O)C1(CCC1)N2C [Compound 398, 4′,8′-dimethyl-2′-(((1-((6-(trifluoromethyl)pyridin-3-yl)methyl)-1H-pyrazol-4-yl)methyl)amino)-5′,8′-dihydro-6′H-spiro[cyclobutane-1,7′-pteridin]-6′-one]"
,≥ 3000 nM,≥ 5000 nM,,"Cc1nc(N(C)Cc2cnn(Cc3ccc(C(F)(F)F)nc3)c2)nc2c1NC(=O)[C@H](C)N2C [Compound 403, (7S)-4,7,8-trimethyl-2-(methyl((1-((6-(trifluoromethyl)pyridin-3-yl)methyl)-1H-pyrazol-4-yl)methyl)amino)-7,8-dihydropteridin-6(5H)-one]"
,≥ 3000 nM,≥ 5000 nM,,"CC(=O)N(Cc1cnn(Cc2ccc(C(F)(F)F)nc2)c1)c1nc(C)c2c(n1)N(C)[C@@H](C)C(=O)N2 [Compound 405, (7S)-N-((1-((6-(trifluoromethyl)pyridin-3-yl)methyl)-1H-pyrazol-4-yl)methyl)-N-(4,7,8-trimethyl-6-oxo-5,6,7,8-tetrahydropteridin-2-yl)acetamide]"
,< 60 nM,< 300 nM,,"Cc1nc(NCc2cnn(Cc3ccc(Cl)nc3)c2)nc2c1NC(=O)[C@H](C(C)C)N2C [Compound 409, (7S)-2-(((1-((6-chloropyridin-3-yl)methyl)-1H-pyrazol-4-yl)methyl)amino)-7-isopropyl-4,8-dimethyl-7,8-dihydropteridin-6(5H)-one]"
< 300 nM,< 60 nM,,,"Cc1nc(NCc2cn(Cc3ccc(C(F)(F)F)nc3)nc2Br)nc2c1NC(=O)[C@H](C)N2C [Compound 412, (S)-2-(((3-bromo-1-((6-(trifluoromethyl)pyridin-3-yl)methyl)-1H-pyrazol-4-yl)methyl)amino)-4,7,8-trimethyl-7,8-dihydropteridin-6(5H)-one]"
< 300 nM,< 60 nM,,,"Cc1nc(NCc2cnn(Cc3cncc(F)c3)c2)nc2c1NC(=O)[C@H](C(C)C)N2C [Compound 415, (7S)-2-(((1-((5-fluoropyridin-3-yl)methyl)-1H-pyrazol-4-yl)methyl)amino)-7-isopropyl-4,8-dimethyl-7,8-dihydropteridin-6(5H)-one]"
< 300 nM,< 60 nM,,,"Cc1nc(NCc2cnn(Cc3ccc(C(F)(F)F)nc3C(C)(C)O)c2)nc2c1NC(=O)[C@H](C)N2C [Compound 416, (7S)-2-(((1-((2-(2-hydroxypropan-2-yl)-6-(trifluoromethyl)pyridin-3-yl)methyl)-1H-pyrazol-4-yl)methyl)amino)-4,7,8-trimethyl-7,8-dihydropteridin-6(5H)-one]"
< 300 nM,< 60 nM,,,"Cc1nc(NCc2cnn(Cc3ccc(C(F)(F)F)nc3Cl)c2)nc2c1NC(=O)[C@H](C)N2C [Compound 418, (7S)-2-(((1-((2-chloro-6-(trifluoromethyl)pyridin-3-yl)methyl)-1H-pyrazol-4-yl)methyl)amino)-4,7,8-trimethyl-7,8-dihydropteridin-6(5H)-one]"
< 300 nM,60 to 600 nM,,,"Cc1nc(NCc2cnn(Cc3ccc(C(F)(F)F)nc3C(C)O)c2)nc2c1NC(=O)[C@H](C)N2C (stereo partly drawn) [Compound 419, (7S)-2-(((1-((2-((S)-1-hydroxyethyl)-6-(trifluoromethyl)pyridin-3-yl)methyl)-1H-pyrazol-4-yl)methyl)amino)-4,7,8-trimethyl-7,8-dihydropteridin-6(5H)-one]"
,60 to 600 nM,,< 300 nM,"Cc1nc(NCc2cnn(Cc3ccc(F)nc3)c2)nc2c1NC(=O)[C@H](C1CC1)N2C [Compound 421, (7S)-7-cyclopropyl-2-(((1-((6-fluoropyridin-3-yl)methyl)-1H-pyrazol-4-yl)methyl)amino)-4,8-dimethyl-7,8-dihydropteridin-6(511)-one]"
< 300 nM,60 to 600 nM,,,"Cc1cc(F)ncc1Cn1cc(CNc2nc(C)c3c(n2)N(C)[C@@H](C(C)C)C(=O)N3)cn1 [Compound 423, (7S)-2-(((1-((6-fluoro-4-methylpyridin-3-yl)methyl)-1H-pyrazol-4-yl)methyl)amino)-7-isopropyl-4,8-dimethyl-7,8-dihydropteridin-6(5H)-one]"
< 300 nM,< 60 nM,,,"Cc1nc(NCc2cnn(Cc3cnc(Cl)c(F)c3)c2)nc2c1NC(=O)[C@H](C(C)C)N2C [Compound 424, (7S)-2-(((1-((6-chloro-5-fluoropyridin-3-yl)methyl)-1H-pyrazol-4-yl)methyl)amino)-7-isopropyl-4,8-dimethyl-7,8-dihydropteridin-6(5H)-one]"
< 300 nM,60 to 600 nM,,,"Cc1ncc(Cn2cc(CNc3nc(C)c4c(n3)N(C)[C@@H](C(C)C)C(=O)N4)cn2)cc1F [Compound 425, (7S)-2-(((1-((5-fluoro-6-methylpyridin-3-yl)methyl)-1H-pyrazol-4-yl)methyl)amino)-7-isopropyl-4,8-dimethyl-7,8-dihydropteridin-6(5H)-one]"
300 to 1000 nM,< 60 nM,,,"CC[C@H]1C(=O)Nc2cnc(NCc3cnn(Cc4ccc(C(F)(F)F)nc4)c3)nc2N1C [Compound 427, (7S)-7-ethyl-8-methyl-2-(((1-((6-(trifluoromethyl)pyridin-3-yl)methyl)-1H-pyrazol-4-yl)methyl)amino)-7,8-dihydropteridin-6(5H)-one]"
≥ 5000 nM,≥ 3000 nM,,,"Cc1nc(NCc2cn(Cc3ccc(C(F)(F)F)nc3)cn2)nc2c1NC(=O)[C@H](C)N2C [Compound 428, (S)-4,7,8-trimethyl-2-(((1-((6-(trifluoromethyl)pyridin-3-yl)methyl)-1H-imidazol-4-yl)methyl)amino)-7,8-dihydropteridin-6(5H)-one]"
